# Data as given in patent publication EP1202992B1, “ASCIDIDEMIN DERIVATIVES AND THEIR THERAPEUTIC APPLICATIONS” (CEPHALON FRANCE, priority 1999, dated 2001).
# Like-named read-outs stand apart in the source and are kept apart here.
# Columns and labels:
# [1] = test system: 12 lignées tumorales humaines; experiment: MTT colorimetric cytotoxicity test, all 12 tumour cell lines together; format: cell-based; settings: mean calculated from the cytotoxic activity on the 12 tumour cell lines; read-out: Cl 50 (the source's name)
# From the text: (§1) L'influence des composés de formules I et la sur les cellules néoplasiques a été évaluée à l'aide du test colorimétrique MTT. Le principe du test MTT est basé sur la réduction mitochondriale par les cellules vivantes métaboliquement actives du produit MTT (3-(4,5-diméthylthiazol-2-yl)-2,5 diphényltétrazolium bromide) de couleur jaune en un produit de couleur bleue, le formazan. La quantité de formazan ainsi obtenue est directement proportionnelle à la quantité de cellules vivantes présentes dans le (ou les) puit(s) de culture. Cette quantité de formazan est mesurée par spectrophotométrie.
# (§2) Les lignées cellulaires sont maintenues en culture monocouche à 37°C dans des boîtes de culture à bouchon fermé contenant du milieu de base MEM 25 MM HEPES (Minimum Essential Medium). Ce milieu, adapté à la croissance d'une gamme de cellules variées diploïdes ou primaires de mammifères, est ensuite additionné : • d'une quantité de 5% de SVF (Sérum de Veau Foetal) décomplémenté à 56°C pendant 1 heure, • de 0,6 mg/ml de L-glutamine, • de 200 IU/ml de pénicilline, • de […] de streptomycine, • de 0,1 mg/ml de gentamicine.
# Les 12 lignées cellulaires cancéreuses humaines utilisées ont été obtenues auprès de l'American Type Culture Collection (ATCC, Rockville, MD, USA). Ces 12 lignées cellulaires sont : • U-373MG (code ATCC : HTB-17) et U-87MG (code ATCC : HTB-14) qui sont deux glioblastomes, • SW1088 (code ATCC : HTB-12) qui est un astrocytome, • A549 (code ATCC : CCL-185) et A-427 (code ATCC : HTB-53) qui sont deux cancers du poumon non-à-petites-cellules, • HCT-15 (code ATCC : CCL-225) et LoVo (code ATCC : CCL-229) qui sont deux cancers colorectaux, • T-47D (code ATCC : HTB-133) et MCF7 (code ATCC : HTB-22) qui sont deux cancers du sein, • J82 (code ATCC : HTB-1) et T24 (code ATCC : HTB-4) qui sont deux cancers de la vessie, • PC-3 (code ATCC : CRL-1435) qui est un cancer de la prostate.
# Au plan expérimental : 100 µl d'une suspension cellulaire contenant 20 000 à 50 000 (selon le type cellulaire utilisé) cellules/ml de milieu de culture sont ensemencés en plaques multi-puits de 96 puits à fond plat et sont mis à incuber à 37°C, sous atmosphère comprenant 5% de CO2 et 70% d'humidité. Au bout de 24 heures d'incubation, le milieu de culture est remplacé par 100 µl de milieu frais contenant soit les différents composés à tester à des concentrations variant de 10^-5 à 10^-10 M soit le solvant ayant servi à la mise en solution des produits à tester (condition contrôle). Après 72 heures d'incubation dans les conditions précédentes, le milieu de culture est remplacé par 100 µl d'une solution jaunâtre de MTT dissous à raison de 1 mg/ml dans du RPMI 1640. Les microplaques sont remises à incuber pendant 3 heures à 37°C puis centrifugées pendant 10 minutes à 400 g. La solution jaunâtre de MTT est éliminée et les cristaux de formazan bleu formés au niveau cellulaire sont dissous dans 100 µl de DMSO. Les microplaques sont ensuite mises sous agitation pendant 5 minutes. L'intensité de la coloration bleue résultant donc de la transformation du produit MTT jaune en formazan bleu par les cellules encore vivantes au terme de l'expérience est quantifiée par spectrophotométrie à l'aide d'un appareil de type DYNATECH IMMUNOASSAY SYSTEM aux longueurs d'onde de 570 nm et 630 nm correspondant respectivement aux longueurs d'ondes d'absorbance maximale du formazan et au bruit de fond. Un logiciel intégré au spectrophotomètre calcule les valeurs moyennes de densité optique ainsi que les valeurs de déviation standard (Dév. Std.) et d'erreur standard sur la moyenne (ESM).
# L'activité inhibitrice de la croissance cellulaire des composés de formules I et la sur les différentes lignées cellulaires tumorales a été comparée à celle du produit naturel, l'ascididémine (CRL 8274). […]
# [2] = test system: modèle cellulaire de leucémie; settings: leukaemia cell model, literature value; cited from earlier work
# souris B6D2F1/Jico = experiment: Determination of the maximum tolerated dose (DMT); format: in vivo; settings: B6D2F1/Jico mice, single intraperitoneal administration, doses 2,5 to 160 mg/kg, survival over 14 days
# Protocol: L'évaluation de la dose maximale tolérée a été réalisée chez des souris B6D2F1/Jico âgées de 4 à 6 semaines. Les composés ont été administrés par voie intrapéritonéale à des doses croissantes s'échelonnant de 2,5 à 160 mg/kg. La valeur de la DMT (exprimée en mg/kg) est déterminée à partir de l'observation du taux de survie des animaux sur une période de 14 jours après une administration unique du produit considéré. L'évolution pondérale des animaux est également suivie pendant cette période. Lorsque la valeur de la DMT est supérieure à 160 mg/kg, la valeur de la DMT est assimilée à 160 mg/kg par défaut.
# SW1088 = experiment: MTT colorimetric cytotoxicity test, SW1088; format: cell-based, humaines; settings: SW1088, 72 h incubation, read-out: Concentrations inhibitrices (M) encadrant la valeur de la concentration inhibitrice 50 %
# From the text: as §1, §2
# (§3) Les 12 lignées cellulaires cancéreuses humaines utilisées ont été obtenues auprès de l'American Type Culture Collection (ATCC, Rockville, MD, USA). […]
# Au plan expérimental : 100 µl d'une suspension cellulaire contenant 20 000 à 50 000 (selon le type cellulaire utilisé) cellules/ml de milieu de culture sont ensemencés en plaques multi-puits de 96 puits à fond plat et sont mis à incuber à 37°C, sous atmosphère comprenant 5% de CO2 et 70% d'humidité. […] L'intensité de la coloration bleue résultant donc de la transformation du produit MTT jaune en formazan bleu par les cellules encore vivantes au terme de l'expérience est quantifiée par spectrophotométrie à l'aide d'un appareil de type DYNATECH IMMUNOASSAY SYSTEM aux longueurs d'onde de 570 nm et 630 nm correspondant respectivement aux longueurs d'ondes d'absorbance maximale du formazan et au bruit de fond. […]
# T24 = experiment: MTT colorimetric cytotoxicity test, T24; format: cell-based, humaines; settings: read-out: Concentrations inhibitrices (M) encadrant la valeur de la concentration inhibitrice 50 %
# From the text: as §1, §2, §3
# J82 = experiment: MTT colorimetric cytotoxicity test, J82; format: cell-based, humaines; settings: J82, 72 h incubation, read-out: Concentrations inhibitrices (M) encadrant la valeur de la concentration inhibitrice 50 %
# From the text: as §1, §2, §3
# LoVo = experiment: MTT colorimetric cytotoxicity test, LoVo; format: cell-based, humaines; settings: Homo sapiens, 72 h incubation, read-out: Concentrations inhibitrices (M) encadrant la valeur de la concentration inhibitrice 50 %
# From the text: as §1, §2, §3
# PC-3 = experiment: MTT colorimetric cytotoxicity test, PC-3; format: cell-based, humaines; settings: Homo sapiens, PC-3, 72 h incubation, read-out: Concentrations inhibitrices (M) encadrant la valeur de la concentration inhibitrice 50 %
# From the text: as §1, §2, §3
# U-373MG = experiment: MTT colorimetric cytotoxicity test, U-373MG; format: cell-based, humaines; settings: 72 h incubation, read-out: Concentrations inhibitrices (M) encadrant la valeur de la concentration inhibitrice 50 %
# From the text: as §1, §2, §3
Compound,IC50 [1] [nM],DMT (souris B6D2F1/Jico) [mg/kg],further results
"2-bromoleptoclinidone [CRL 8269, reference compound]",120,40,DE 50 [2]: 0.4 µg/mL
"5-(2-chloroéthyl)amino-9H-quino[4,3,2de][1,10] phénanthrolin-9-one [CRL 8423]",7,>160,
"5-(diméthylamino-2-éthyl)amino-9H-quino[4,3,2de][1,10] phénanthrolin-9-one [CRL 8419]",60,40,
"5-bis(2-chloroéthyl)amino-9H-quino[4,3,2de][1,10] phénanthrolin-9-one [CRL 8422]",100,>160,
"5-chloro-9H-quino [4,3,2-de] [1,10] phénantrolin-9-one [CRL 8301]",270,>160,
"9-H-quino[4,3,2-de][1,10]phénanthrolin-9-one [CRL 8274, reference compound]",100,20,
"CC(=O)c1ccc(Br)cc1NC1=CC(=O)c2ncccc2C1=O [CRL8268, 6-(2-acétyl-5-bromo-phénylamino)-quinoline-5,8 dione]",,,IC50 (SW1088; Homo sapiens): > 1e-05 M
"CC(=O)c1cc(C)ccc1NC1=CC(=O)c2ncccc2C1=O [CRL8322, 6-(2-acétyl-4-méthyl-phénylamino)-quinoline-5,8-dione]",,,"IC50 (SW1088; Homo sapiens): > 1e-05 M; IC50 (T24; Homo sapiens, T-24, T24, 72 h incubation): > 1e-05 M; IC50 (J82; Homo sapiens): > 1e-05 M; IC50 (LoVo): > 1e-05 M; IC50 (PC-3): > 1e-05 M"
"Cc1ccc2nc3c(c(C)c2c1)C(=O)c1ncccc1C3=O [CRL8324, 9,11-diméthyl-1,6-diaza-naphtacène-5,12-dione]",,,"IC50 (U-373MG): > 1e-05 M; IC50 (SW1088): > 1e-05 M; IC50 (T24; T24, 72 h incubation): > 1e-05 M; IC50 (J82): > 1e-05 M"
"O=C1c2cccnc2-c2nccc3c2c1nc1ccc(NCc2ccccc2)cc13 [CRL 8241, 5-(benzylamino)-9H-quino[4,3,2-de][1,10] phénanthrolin-9-one]",140,>160,
"O=C1c2nccc(Br)c2-c2nc3ccccc3c3ccnc1c23 [CRL 8248, 5-bromo-9H-quino[4,3,2-de] [1,10]phénantrolin-9-one]",80,>160,
"COc1ccc2nc3c4c(nccc4c2c1)-c1ncccc1C3=O [CRL 8297, 5-méthoxy-9H-quino[4,3,2-de][1,10]phénanthrolin-9-one]",90,>160,
"Cc1ccc2nc3c4c(nccc4c2c1)-c1ncccc1C3=O [CRL 8323, 5-méthyl-9H-quino [4,3,2-de][1,10] phénanthrolin-9-one]",60,20,
"CN(C)c1ccc2nc3c4c(nccc4c2c1)-c1ncccc1C3=O [CRL 8325, 5-(diméthylamino)-9H-quino[4,3,2-de][1,10]phénanthrolin-9-one]",37,>160,
"Nc1ccnc2c1-c1nc3ccccc3c3ccnc(c13)C2=O [CRL 8347, 5-amino-9H-quino[4,3,2-de][1,10]phénanthtolin-9-one]",21,>160,
"COc1ccnc2c1C(=O)c1nc3ccc(Br)cc3c3ccnc-2c13 [CRL 8389, 5-bromo-10-méthoxy-9H-quino[4,3,2-de][1,10]phénanthrolin-9-one]",420,>160,
"CN(C)c1ccc2nc3c4c(nccc4c2c1)-c1ncccc1C3=O [CRL 8407, Chlorhydratede la 5-(diméthylamino)-9H-quino[4,3,2-de][1,10] phénanthrolin-9-one]",22,>160,
"O=C1c2cccnc2-c2nccc3c2c1nc1ccc(NCc2ccccc2)cc13 [CRL 8416, Chlorhydratede la 5-(benzylamino)-9H-quino[4,3,2-de][1,10] phénanthrolin-9-one]",80,>160,
"Chlorhydrate de la 5-(diméthylamino-2-éthyl)amino-9H-quino[4,3,2de][1,10] phénanthrolin-9-one [CRL 8418]",110,40,
"Chlorhydrate de la 5-amino-9H-quino[4,3,2-de][1,10]phénanthrolin-9-one [CRL 8406]",60,>160,
